Measurements taken from patent US10450288B2, “Hydroxy formamide derivatives and their use” (GLAXOSMITHKLINE INTELLECTUAL PROPERTY (NO.2) LIMITED, priority 2014, dated 2019).

Test system: human cardiac fibroblasts
Test: Cell-based inhibition assay of generation of procollagen I C-terminal propeptide (PICP), PICP ELISA
Conditions: Cardiac fibroblast; human cardiac fibroblasts, crowding media, 24 to 48 hr, PICP ELISA of media; read-out: pIC50, PICP cellular inhibition assay (converted)
Method: Cell-Based Inhibition Assay of Generation of Procollagen I C-Terminal Propeptide (PICP) and Mature Collagen:
An adaptation of the collagen deposition assay described by Chen, C. Z. C., et al., British Journal of Pharmacology, 2009, 158, 1196-1209 was used to examine effect of compounds on procollagen I processing and collagen deposition. In the adapted assay, human cardiac fibroblasts were utilized. Processing of procollagen I was determined by a PICP ELISA assay and deposition of mature collagen was determined by immunostaining.
Human cardiac fibroblasts were cultured and maintained until passage 6 in FGM-3 media (Lonza, #CC-3132) in a 37° C. humidified incubator with 5% CO2. They were then seeded in 96-well black wall, clear bottom plates at 10,000 to 15,000 cells per well in eagle's minimum essential media (EMEM, ATCC #30-2003) containing 10% fetal bovine serum (FBS, Life Technologies #10082147), 1% Glutamax (Life Technologies #35050061) and 1% Penicillin and Streptomycin (Life Technologies #15070063). These cultures were placed in 37° C. incubator. The next day, media were removed by aspiration and cells were rinsed with phosphate buffered saline. Crowding media (also called ficoll media) was prepared by adding 112.5 mg/ml of ficoll70 and 75 mg/ml ficoll400 (GE healthcare #17-0310-10 and 17-0300-10, respectively), 100 μM ascorbic acid, 1% Glutamax and 1% Penicillin and Streptomycin to EMEM media. Test compounds (dissolved in DMSO) were diluted into crowding media and then added to the cells. Final concentration of DMSO in crowding media was less than 0.3%. Cells were treated for 24 to 48 hr in a 37° C. incubator. At the end of the treatment period, cell media were collected. The level of PICP in the media were determined by a PICP ELISA assay (Quidel #8003) following the manufacturer's protocol. Potencies of test compounds were calculated by fitting PICP levels, relative to untreated controls, to log (inhibitor) vs. response equation using Graphpad Prism software 5.0 and expressed as pIC50.

Compound | IC50
CCCCC[C@@H](C(=O)NCNC(=O)c1ccc(-c2ccc(C(=O)O)c(OCC)c2)o1)[C@@H](CC)N(O)C=O [Example 1, 2-ethoxy-4-(5-((((R)-2-((R)-1-(N-hydroxyformamido)propyl)heptanamido)methyl)carbamoyl)furan-2-yl)benzoic acid] | < 3.98 µM
CCCCC[C@H](CN(O)C=O)C(=O)NCNC(=O)c1ccc(-c2cccc(S(N)(=O)=O)c2)o1 [Example 12, (R)-N-((2-((N-hydroxyformamido)methyl)heptanamido)methyl)-5-(3-sulfamoylphenyl)furan-2-carboxamide] | < 3.98 µM
CCCCC[C@H](CN(O)C=O)C(=O)NCNC(=O)c1ccc(-c2cccc(OC(F)(F)F)c2)o1 [Example 13, (R)-N-((2-((N-hydroxyformamido)methyl)heptanamido)methyl)-5-(3-(trifluoromethoxy)phenyl) furan-2-carboxamide carboxamide] | < 3.98 µM
CCCCC[C@H](CN(O)C=O)C(=O)NCNC(=O)c1ccc(-c2cccc(OCC)c2)o1 [Example 14, (R)-5-(3-ethoxyphenyl)-N-((2-((N-hydroxyformamido)methyl)heptanamido)methyl) furan-2-carboxamide] | < 3.98 µM
CCCCC[C@H](CN(O)C=O)C(=O)NCNC(=O)c1ccc(-c2cccc(C(=O)OC)c2)o1 [Example 16, (R)-methyl 3-(5-(((2-((N-hydroxyformamido)methyl)heptanamido)methyl)carbamoyl)furan-2-yl)benzoate] | < 3.98 µM
CCCCC[C@H](CN(O)C=O)C(=O)NCNC(=O)c1ccc(-c2cc(OC)ccn2)o1 [Example 18, (R)-N-((2-((N-hydroxyformamido)methyl)heptanamido)methyl)-5-(4-methoxypyridin-2-yl)furan-2-carboxamide] | < 3.98 µM
CCCCC[C@H](CN(O)C=O)C(=O)NCNC(=O)c1ccc(-c2cccc(S(=O)(=O)NC)c2)o1 [Example 22, (R)-N-((2-((N-hydroxyformamido)methyl)heptanamido)methyl)-5-(3-(N-methylsulfamoyl)phenyl) furan-2-carboxamide] | < 3.98 µM
CCCCC[C@H](CN(O)C=O)C(=O)NCNC(=O)c1ccc(-c2cccc(OCC(F)(F)F)c2)o1 [Example 23, (R)-N-((2-((N-hydroxyformamido)methyl)heptanamido)methyl)-5-(3-(2,2,2-trifluoroethoxy)phenyl) furan-2-carboxamide] | < 3.98 µM
CCCCC[C@H](CN(O)C=O)C(=O)NCNC(=O)c1ccc(-c2cccc(OC(C)C)c2)o1 [Example 25, (R)-N-((2-((N-hydroxyformamido)methyl)heptanamido)methyl)-5-(3-isopropoxyphenyl)furan-2-carboxamide] | < 3.98 µM
CCCCC[C@H](CN(O)C=O)C(=O)NCNC(=O)c1ccc(-c2cc(OCC)cc(C(=O)OC)c2)o1 [Example 26] | < 3.98 µM
CCCCC[C@H](CN(O)C=O)C(=O)NCNC(=O)c1ccc(-c2cccc(N(C)C)c2)o1 [Example 27, (R)-5-(3-(dimethylamino)phenyl)-N-((2-((N-hydroxyformamido)methyl)heptanamido)methyl) furan-2-carboxamide] | < 3.98 µM
CCCCC[C@H](CN(O)C=O)C(=O)NCNC(=O)c1ccc(-c2cccc(S(=O)(=O)NC(=O)CC)c2)o1 [Example 28, (R)-N-((2-((N-hydroxyformamido)methyl)heptanamido)methyl)-5-(3-(N-propionylsulfamoyl)phenyl)furan-2-carboxamide] | < 3.98 µM
CCCCC[C@H](CN(O)C=O)C(=O)NCNC(=O)c1ccc(-c2cc(OCC)cc(C(=O)O)c2)o1 [Example 30, (R)-3-ethoxy-5-(5-(((2-((N-hydroxyformamido)methyl)heptanamido)methyl)carbamoyl)furan-2-yl)benzoic acid] | < 3.98 µM
CCCCC[C@H](CN(O)C=O)C(=O)NCNC(=O)c1ccc(-c2cc(OC)cc(C(=O)NCCN)c2)o1 [Example 33, (R)-5-(3-((2-aminoethyl)carbamoyl)-5-methoxyphenyl)-N-((2-((N-hydroxyformamido)methyl)heptanamido)methyl) furan-2-carboxamide] | < 3.98 µM
CCCCC[C@H](CN(O)C=O)C(=O)NCNC(=O)c1ccc(-c2cc(OCC)cc(C(=O)NCCN)c2)o1 [Example 34, (R)-5-(3-((2-aminoethyl)carbamoyl)-5-ethoxyphenyl)-N-((2-((N-hydroxyformamido)methyl)heptanamido)methyl) furan-2-carboxamide] | < 3.98 µM
CCCCC[C@H](CN(O)C=O)C(=O)NCNC(=O)c1ccc(-c2cccc(OC(F)F)c2)o1 [Example 35, (R)-5-(3-(difluoromethoxy)phenyl)-N-((2-((N hydroxyformamido)methyl)heptanamido)methyl) furan-2-carboxamide] | < 3.98 µM
CCCCC[C@@H](C(=O)NCNC(=O)c1ccc(-c2cc(OCC)cc(C(=O)NCCN)c2)o1)[C@@H](CC)N(O)C=O [Example 40, 5-(3-((2-aminoethyl)carbamoyl)-5-ethoxyphenyl)-N-(((R)-2-((R)-1-(N-hydroxyformamido)propyl)heptanamido)methyl) furan-2-carboxamide] | < 3.98 µM
CCCCC[C@@H](C(=O)NCNC(=O)c1ccc(-c2ccc(CC(=O)O)c(OCC)c2)o1)[C@@H](CC)N(O)C=O [Example 41, 2-(2-ethoxy-4-(5-((((R)-2-((R)-1-(N-hydroxyformamido)propyl)heptanamido)methyl)carbamoyl)furan-2-yl)phenyl)acetic acid] | < 3.98 µM
CCCCC[C@@H](C(=O)NCNC(=O)c1ccc(-c2ccc(CC(=O)O)cc2)o1)[C@@H](CC)N(O)C=O [Example 42, 2-(4-(5-((((R)-2-((R)-1-(N-hydroxyformamido)propyl)heptanamido)methyl)carbamoyl)furan-2-yl)phenyl)acetic acid] | < 3.98 µM
CCCCC[C@@H](C(=O)NCNC(=O)c1ccc(-c2ccc(C(C)(C)C(=O)O)cc2)o1)[C@@H](CC)N(O)C=O [Example 43, 2-(4-(5-((((R)-2-((R)-1-(N-hydroxyformamido)propyl)heptanamido)methyl)carbamoyl)furan-2-yl)phenyl)-2-methylpropanoic acid] | < 3.98 µM
CCCCC[C@@H](C(=O)NCNC(=O)c1ccc(-c2ccc(C3(C(=O)O)CC3)cc2)o1)[C@@H](CC)N(O)C=O [Example 44, 1-(4-(5-((((R)-2-((R)-1-(N-hydroxyformamido)propyl)heptanamido)methyl)carbamoyl)furan-2-yl)phenyl)cyclopropane-carboxylic acid] | < 3.98 µM
CCCCC[C@@H](C(=O)NCNC(=O)c1ccc(-c2cc(OCC)cc(C(=O)N[C@@H](CCC(=O)O)C(=O)OC(C)(C)C)c2)o1)[C@@H](CC)N(O)C=O [Example 45, (S)-5-(tert-butoxy)-4-(3-ethoxy-5-(5-((((R)-2-((R)-1-(N-hydroxyformamido)propyl)heptanamido)methyl)carbamoyl)furan-2-yl)benzamido)-5-oxopentanoic acid] | < 3.98 µM
CCCCC[C@@H](C(=O)NCNC(=O)c1ccc(-c2cc(OCC)cc(C(=O)N[C@@H](CCC(=O)OC)C(=O)OC)c2)o1)[C@@H](CC)N(O)C=O [Example 48, (S)-dimethyl 2-(3-ethoxy-5-(5-((((R)-2-((R)-1-(N-hydroxyformamido)propyl)heptanamido)methyl)carbamoyl)furan-2-yl)benzamido) pentanedioate] | < 3.98 µM
CCCCC[C@@H](C(=O)NCNC(=O)c1ccc(-c2cc(OCC)cc(C(F)(F)C(=O)O)c2)o1)[C@@H](CC)N(O)C=O [Example 49, 2-(3-ethoxy-5-(5-((((R)-2-((R)-1-(N-hydroxyformamido)propyl)heptanamido)methyl)carbamoyl)furan-2-yl)phenyl)-2,2-difluoroacetic acid] | < 3.98 µM
CCCCC[C@H](CN(O)C=O)C(=O)NCNC(=O)c1ccc(-c2ccc(F)c(C(=O)OC)c2)o1 [Example 51, (R)-methyl 2-fluoro-5-(5-(((2-((N-hydroxyformamido)methyl)heptanamido)methyl)carbamoyl)furan-2-yl)benzoate] | < 3.98 µM

Same assay, conditions: Homo sapiens, Cardiac fibroblast, read-out: pIC50, PICP cellular inhibition assay (converted)

Compound | IC50
CCCCC[C@H](CN(O)C=O)C(=O)NCNC(=O)c1ccc(-c2cc(OC)cc(C(=O)O)c2)o1 [Example 29, (R)-3-(5-(((2-((N-hydroxyformamido)methyl)heptanamido)methyl)carbamoyl)furan-2-yl)-5-methoxybenzoic acid] | < 3.98 µM
CCCCC[C@@H](C(=O)NCNC(=O)c1ccc(-c2cc(OCC)cc(P(=O)(OC)OC)c2)o1)[C@@H](CC)N(O)C=O [Example 50, dimethyl (3-ethoxy-5-(5-((((R)-2-((R)-1-(N-hydroxyformamido)propyl)heptanamido)methyl)carbamoyl)furan-2-yl)phenyl)phosphonate] | < 3.98 µM
